Legend:
[1] = molecular target: SRSF protein kinase 3 (Homo sapiens) (UniProt Q9UPE1); conditions: Compound concentration 1000.0 nM
[2] = molecular target: Megakaryocyte-associated tyrosine-protein kinase (Homo sapiens) (UniProt P42679); conditions: Compound concentration 1000.0 nM
[3] = molecular target: Mitogen-activated protein kinase kinase kinase 4 (Homo sapiens) (UniProt Q9Y6R4); conditions: Compound concentration 1000.0 nM
[4] = molecular target: Casein kinase I isoform delta (Homo sapiens) (UniProt P48730); conditions: Compound concentration 1000.0 nM
[5] = molecular target: Casein kinase I isoform gamma-2 (Homo sapiens) (UniProt P78368); conditions: Compound concentration 1000.0 nM
[6] = molecular target: Mitogen-activated protein kinase kinase kinase 13 (Homo sapiens) (UniProt O43283); conditions: Compound concentration 1000.0 nM
[7] = molecular target: Mitogen-activated protein kinase kinase kinase 6 (Homo sapiens) (UniProt O95382); conditions: Compound concentration 1000.0 nM
[8] = molecular target: D(1B) dopamine receptor (Homo sapiens) (UniProt P21918); conditions: Compound concentration 10.0 uM
[9] = molecular target: Mast/stem cell growth factor receptor Kit (Homo sapiens) (UniProt P10721); conditions: Compound concentration 1000.0 nM
[10] = tested on: Proto-oncogene tyrosine-protein kinase receptor Ret (Homo sapiens), P07949 [V804M]; conditions: Compound concentration 1000.0 nM
[11] = molecular target: Serine/threonine-protein kinase Nek2 (Homo sapiens) (UniProt P51955); conditions: Compound concentration 1000.0 nM
[12] = molecular target: Ephrin type-B receptor 6 (Homo sapiens) (UniProt O15197); conditions: Compound concentration 1000.0 nM
[13] = molecular target: Cyclin-dependent kinase-like 1 (Homo sapiens) (UniProt Q00532); conditions: Compound concentration 1000.0 nM
[14] = molecular target: Homeodomain-interacting protein kinase 1 (Homo sapiens) (UniProt Q86Z02); conditions: Compound concentration 1000.0 nM
[15] = molecular target: Dual specificity mitogen-activated protein kinase kinase 7 (Homo sapiens) (UniProt O14733); conditions: Compound concentration 1000.0 nM
[16] = molecular target: Cyclin-dependent kinase 5 (Homo sapiens) (UniProt Q00535); conditions: Compound concentration 1000.0 nM
[17] = molecular target: Tyrosine-protein kinase receptor UFO (Homo sapiens) (UniProt P30530); conditions: Compound concentration 1000.0 nM
[18] = molecular target: Tyrosine-protein kinase Lck (Homo sapiens) (UniProt P06239); conditions: Compound concentration 1000.0 nM
[19] = molecular target: T1, Muscarinic acetylcholine receptor M2 (Homo sapiens) (UniProt P08172); conditions: Compound concentration 10.0 uM
T1 sequence (whole entry): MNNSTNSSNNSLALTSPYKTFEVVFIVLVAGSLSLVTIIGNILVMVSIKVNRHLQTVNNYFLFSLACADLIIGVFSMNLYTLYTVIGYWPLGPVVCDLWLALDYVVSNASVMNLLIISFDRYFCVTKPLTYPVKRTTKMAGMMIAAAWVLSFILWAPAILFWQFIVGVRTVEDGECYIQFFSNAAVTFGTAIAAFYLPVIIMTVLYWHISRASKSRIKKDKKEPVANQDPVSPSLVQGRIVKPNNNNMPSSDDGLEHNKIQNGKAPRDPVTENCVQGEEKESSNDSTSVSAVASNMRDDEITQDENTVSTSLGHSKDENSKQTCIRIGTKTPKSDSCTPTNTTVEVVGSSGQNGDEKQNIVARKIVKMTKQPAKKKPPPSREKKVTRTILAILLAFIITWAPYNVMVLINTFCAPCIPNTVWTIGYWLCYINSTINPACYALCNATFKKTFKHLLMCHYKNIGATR

[20] = tested on: Receptor-type tyrosine-protein kinase FLT3 (Homo sapiens), P36888 [N841I]; conditions: Compound concentration 1000.0 nM
[21] = tested on: Mast/stem cell growth factor receptor Kit (Homo sapiens), P10721 [D816H]; conditions: Compound concentration 1000.0 nM
[22] = molecular target: Serine/threonine-protein kinase BRSK2 (Homo sapiens) (UniProt Q8IWQ3); conditions: Compound concentration 1000.0 nM
[23] = molecular target: Serine/threonine-protein kinase TBK1 (Homo sapiens) (UniProt Q9UHD2); conditions: Compound concentration 1000.0 nM
[24] = molecular target: Ribosomal protein S6 kinase alpha-1 (Homo sapiens) (UniProt Q15418); conditions: Compound concentration 1000.0 nM
[25] = molecular target: MAP kinase-interacting serine/threonine-protein kinase 2 (Homo sapiens) (UniProt Q9HBH9); conditions: Compound concentration 1000.0 nM
[26] = tested on: Tyrosine-protein kinase ABL1 (Homo sapiens), P00519 [T315I]; conditions: Compound concentration 1000.0 nM
[27] = molecular target: NT-3 growth factor receptor (Homo sapiens) (UniProt Q16288); conditions: Compound concentration 1000.0 nM
[28] = tested on: Fibroblast growth factor receptor 3 (Homo sapiens), P22607 [G697C]; conditions: Compound concentration 1000.0 nM
[29] = molecular target: Mitogen-activated protein kinase kinase kinase 1 (Homo sapiens) (UniProt Q13233); conditions: Compound concentration 1000.0 nM
[30] = molecular target: Interleukin-1 receptor-associated kinase 3 (Homo sapiens) (UniProt Q9Y616); conditions: Compound concentration 1000.0 nM
[31] = molecular target: Death-associated protein kinase 2 (Homo sapiens) (UniProt Q9UIK4); conditions: Compound concentration 1000.0 nM
[32] = molecular target: Death-associated protein kinase 3 (Homo sapiens) (UniProt O43293); conditions: Compound concentration 1000.0 nM
[33] = molecular target: Proto-oncogene tyrosine-protein kinase receptor Ret (Homo sapiens) (UniProt P07949); conditions: Compound concentration 1000.0 nM
[34] = molecular target: Serine/threonine-protein kinase PAK 1 (Homo sapiens) (UniProt Q13153); conditions: Compound concentration 1000.0 nM
[35] = tested on: Mast/stem cell growth factor receptor Kit (Homo sapiens), P10721 [V559D,T670I]; conditions: Compound concentration 1000.0 nM
[36] = molecular target: Interleukin-1 receptor-associated kinase 1 (Homo sapiens) (UniProt P51617); conditions: Compound concentration 1000.0 nM
[37] = molecular target: Serine/threonine-protein kinase NIM1 (Homo sapiens) (UniProt Q8IY84); conditions: Compound concentration 1000.0 nM
[38] = molecular target: Receptor-interacting serine/threonine-protein kinase 4 (Homo sapiens) (UniProt P57078); conditions: Compound concentration 1000.0 nM
[39] = molecular target: Protein kinase C epsilon type (Homo sapiens) (UniProt Q02156); conditions: Compound concentration 1000.0 nM

Sequence of Megakaryocyte-associated tyrosine-protein kinase (Homo sapiens) (P42679 whole entry): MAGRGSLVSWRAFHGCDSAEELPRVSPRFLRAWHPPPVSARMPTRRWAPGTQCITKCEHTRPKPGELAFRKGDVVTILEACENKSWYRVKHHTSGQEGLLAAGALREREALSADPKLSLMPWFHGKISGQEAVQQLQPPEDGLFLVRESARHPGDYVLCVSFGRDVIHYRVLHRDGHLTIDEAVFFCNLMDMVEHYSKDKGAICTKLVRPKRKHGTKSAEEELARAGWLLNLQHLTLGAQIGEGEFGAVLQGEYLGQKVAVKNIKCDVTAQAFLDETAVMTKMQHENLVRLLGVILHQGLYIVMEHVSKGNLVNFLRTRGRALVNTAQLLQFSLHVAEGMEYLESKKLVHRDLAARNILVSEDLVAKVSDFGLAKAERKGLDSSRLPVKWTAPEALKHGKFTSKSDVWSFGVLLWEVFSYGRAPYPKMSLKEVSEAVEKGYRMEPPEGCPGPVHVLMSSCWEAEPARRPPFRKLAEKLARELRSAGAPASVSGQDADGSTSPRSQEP
Sequence of Serine/threonine-protein kinase TBK1 (Homo sapiens) (Q9UHD2 whole entry): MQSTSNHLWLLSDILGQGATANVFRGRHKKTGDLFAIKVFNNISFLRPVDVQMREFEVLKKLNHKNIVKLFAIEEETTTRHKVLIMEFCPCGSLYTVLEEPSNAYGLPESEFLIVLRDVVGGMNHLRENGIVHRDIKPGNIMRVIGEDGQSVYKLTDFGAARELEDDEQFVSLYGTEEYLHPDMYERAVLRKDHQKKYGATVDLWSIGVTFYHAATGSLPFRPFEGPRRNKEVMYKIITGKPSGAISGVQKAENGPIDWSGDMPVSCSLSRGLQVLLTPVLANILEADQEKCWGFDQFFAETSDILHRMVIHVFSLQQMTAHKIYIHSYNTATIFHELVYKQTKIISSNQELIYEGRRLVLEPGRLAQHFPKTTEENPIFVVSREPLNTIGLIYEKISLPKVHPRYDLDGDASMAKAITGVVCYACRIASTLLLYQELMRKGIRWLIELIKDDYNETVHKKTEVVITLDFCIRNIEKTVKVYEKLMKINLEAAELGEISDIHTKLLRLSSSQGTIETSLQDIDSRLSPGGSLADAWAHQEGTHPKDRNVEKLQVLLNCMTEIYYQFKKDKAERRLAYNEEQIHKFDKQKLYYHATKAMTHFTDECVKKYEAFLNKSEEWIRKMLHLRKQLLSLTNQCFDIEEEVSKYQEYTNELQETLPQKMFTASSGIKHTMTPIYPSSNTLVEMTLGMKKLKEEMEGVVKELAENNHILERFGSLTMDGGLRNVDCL
Sequence of D(1B) dopamine receptor (Homo sapiens) (P21918 whole entry): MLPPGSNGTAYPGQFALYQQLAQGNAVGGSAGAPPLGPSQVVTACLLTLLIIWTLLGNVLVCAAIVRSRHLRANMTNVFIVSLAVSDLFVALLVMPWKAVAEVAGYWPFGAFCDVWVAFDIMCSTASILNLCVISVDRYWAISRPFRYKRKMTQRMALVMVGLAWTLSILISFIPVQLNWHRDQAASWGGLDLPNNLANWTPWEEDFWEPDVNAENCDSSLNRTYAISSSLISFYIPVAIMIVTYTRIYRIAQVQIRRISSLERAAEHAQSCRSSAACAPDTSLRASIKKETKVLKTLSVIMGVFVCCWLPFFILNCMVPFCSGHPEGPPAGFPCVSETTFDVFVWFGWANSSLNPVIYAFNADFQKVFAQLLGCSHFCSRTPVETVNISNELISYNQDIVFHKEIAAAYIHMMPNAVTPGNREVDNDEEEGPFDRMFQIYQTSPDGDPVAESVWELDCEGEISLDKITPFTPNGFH
Sequence of Mitogen-activated protein kinase kinase kinase 13 (Homo sapiens) (O43283 whole entry): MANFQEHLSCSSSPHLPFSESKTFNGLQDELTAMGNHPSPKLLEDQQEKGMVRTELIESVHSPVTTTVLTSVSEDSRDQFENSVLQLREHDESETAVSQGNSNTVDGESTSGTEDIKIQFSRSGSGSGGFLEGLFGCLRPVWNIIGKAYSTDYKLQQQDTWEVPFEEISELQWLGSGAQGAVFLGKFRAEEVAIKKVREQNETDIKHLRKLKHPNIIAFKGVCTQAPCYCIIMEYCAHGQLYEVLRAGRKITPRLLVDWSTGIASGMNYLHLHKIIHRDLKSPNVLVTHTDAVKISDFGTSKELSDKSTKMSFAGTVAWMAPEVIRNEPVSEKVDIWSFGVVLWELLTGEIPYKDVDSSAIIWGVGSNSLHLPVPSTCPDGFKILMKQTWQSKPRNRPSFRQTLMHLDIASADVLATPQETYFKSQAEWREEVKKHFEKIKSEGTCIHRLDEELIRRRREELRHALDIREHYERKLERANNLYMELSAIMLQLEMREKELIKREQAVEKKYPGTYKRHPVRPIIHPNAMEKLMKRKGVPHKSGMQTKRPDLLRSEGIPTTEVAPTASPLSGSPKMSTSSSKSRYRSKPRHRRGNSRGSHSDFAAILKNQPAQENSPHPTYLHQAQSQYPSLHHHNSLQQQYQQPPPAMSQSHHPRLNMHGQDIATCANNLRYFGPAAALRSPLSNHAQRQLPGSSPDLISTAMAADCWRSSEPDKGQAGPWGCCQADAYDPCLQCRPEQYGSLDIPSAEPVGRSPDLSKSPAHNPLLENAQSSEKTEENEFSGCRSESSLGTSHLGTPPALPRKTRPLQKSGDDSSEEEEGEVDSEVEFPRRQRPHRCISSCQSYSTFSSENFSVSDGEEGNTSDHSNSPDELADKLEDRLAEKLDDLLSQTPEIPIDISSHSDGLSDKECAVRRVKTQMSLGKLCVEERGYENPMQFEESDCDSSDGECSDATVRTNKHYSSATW
Sequence of Tyrosine-protein kinase receptor UFO (Homo sapiens) (P30530 whole entry): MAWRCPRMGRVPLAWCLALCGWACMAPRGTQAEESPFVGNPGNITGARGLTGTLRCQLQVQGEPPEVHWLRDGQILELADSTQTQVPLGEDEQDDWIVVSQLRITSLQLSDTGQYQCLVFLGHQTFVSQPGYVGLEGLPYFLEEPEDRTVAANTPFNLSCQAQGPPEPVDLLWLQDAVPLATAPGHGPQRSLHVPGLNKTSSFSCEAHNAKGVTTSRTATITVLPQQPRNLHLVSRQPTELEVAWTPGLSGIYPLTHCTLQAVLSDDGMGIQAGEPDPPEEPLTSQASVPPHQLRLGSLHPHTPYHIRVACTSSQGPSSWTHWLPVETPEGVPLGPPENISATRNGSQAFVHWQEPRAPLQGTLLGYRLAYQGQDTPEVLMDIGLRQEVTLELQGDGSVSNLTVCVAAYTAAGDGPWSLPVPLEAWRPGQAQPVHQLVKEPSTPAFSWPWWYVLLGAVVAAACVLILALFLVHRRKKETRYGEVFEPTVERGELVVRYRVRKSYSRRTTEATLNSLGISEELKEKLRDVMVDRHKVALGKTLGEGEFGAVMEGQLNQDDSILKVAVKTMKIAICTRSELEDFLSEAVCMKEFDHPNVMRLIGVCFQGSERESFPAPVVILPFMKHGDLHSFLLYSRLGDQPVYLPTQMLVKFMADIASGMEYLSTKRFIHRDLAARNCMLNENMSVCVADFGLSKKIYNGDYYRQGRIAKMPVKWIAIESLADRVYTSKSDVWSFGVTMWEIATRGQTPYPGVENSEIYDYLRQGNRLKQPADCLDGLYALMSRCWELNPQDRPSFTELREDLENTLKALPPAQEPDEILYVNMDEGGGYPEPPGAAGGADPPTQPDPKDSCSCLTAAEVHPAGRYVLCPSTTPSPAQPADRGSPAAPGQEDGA
Sequence of Casein kinase I isoform gamma-2 (Homo sapiens) (P78368 whole entry, looked up, canonical isoform): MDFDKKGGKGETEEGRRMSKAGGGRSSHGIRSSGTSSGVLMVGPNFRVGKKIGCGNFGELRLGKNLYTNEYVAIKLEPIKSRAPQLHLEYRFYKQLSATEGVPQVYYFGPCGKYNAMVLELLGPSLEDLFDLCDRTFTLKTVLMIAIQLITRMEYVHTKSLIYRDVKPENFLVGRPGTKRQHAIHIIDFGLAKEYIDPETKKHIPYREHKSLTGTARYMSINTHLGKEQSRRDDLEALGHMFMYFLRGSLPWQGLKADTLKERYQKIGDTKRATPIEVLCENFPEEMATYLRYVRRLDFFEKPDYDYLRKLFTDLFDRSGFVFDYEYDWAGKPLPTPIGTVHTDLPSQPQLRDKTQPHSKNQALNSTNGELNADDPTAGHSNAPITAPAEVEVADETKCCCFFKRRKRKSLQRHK
Sequence of Death-associated protein kinase 3 (Homo sapiens) (O43293 whole entry, looked up): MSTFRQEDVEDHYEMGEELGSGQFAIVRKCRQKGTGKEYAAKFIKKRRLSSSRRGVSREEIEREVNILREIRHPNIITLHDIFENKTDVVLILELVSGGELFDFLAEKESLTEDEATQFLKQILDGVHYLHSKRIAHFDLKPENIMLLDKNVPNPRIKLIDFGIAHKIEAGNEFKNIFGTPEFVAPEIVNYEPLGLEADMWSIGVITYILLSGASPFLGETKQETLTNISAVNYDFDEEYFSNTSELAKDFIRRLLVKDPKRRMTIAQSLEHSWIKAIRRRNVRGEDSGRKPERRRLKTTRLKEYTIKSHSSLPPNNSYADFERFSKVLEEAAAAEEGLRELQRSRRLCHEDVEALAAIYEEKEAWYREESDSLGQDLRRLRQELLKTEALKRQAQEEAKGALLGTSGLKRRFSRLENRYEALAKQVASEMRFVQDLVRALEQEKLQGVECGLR
Sequence of Casein kinase I isoform delta (Homo sapiens) (P48730 whole entry, looked up, canonical isoform): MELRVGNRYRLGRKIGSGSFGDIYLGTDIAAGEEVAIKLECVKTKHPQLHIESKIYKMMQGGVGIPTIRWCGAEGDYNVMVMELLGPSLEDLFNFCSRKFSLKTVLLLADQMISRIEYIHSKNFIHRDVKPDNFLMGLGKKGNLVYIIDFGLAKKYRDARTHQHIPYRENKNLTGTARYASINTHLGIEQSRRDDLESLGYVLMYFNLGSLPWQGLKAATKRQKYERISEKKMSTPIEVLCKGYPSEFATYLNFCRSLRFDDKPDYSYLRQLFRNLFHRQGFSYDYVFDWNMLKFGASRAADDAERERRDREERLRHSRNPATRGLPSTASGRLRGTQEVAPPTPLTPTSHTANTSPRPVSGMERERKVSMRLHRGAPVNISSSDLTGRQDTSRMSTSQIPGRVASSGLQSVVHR

CC(=O)N1CCC(c2ccc(C(=O)NC3=NCCN3)cc2C(F)(F)F)CC1 [BI 0054]
inactive: residual activity [1] 100% | residual activity [2] 100% | residual activity [3] 81% | residual activity [4] 100% | residual activity [5] 100% | residual activity [6] 100% | residual activity [7] 93% | inhibition [8] -9.82% | residual activity [9] 100% | residual activity [10] 100% | residual activity [11] 100% | residual activity [12] 100% | residual activity [13] 100% | residual activity [14] 91% | residual activity [15] 100% | residual activity [16] 100% | residual activity [17] 100% | residual activity [18] 100% | inhibition [19] -0.799% | residual activity [20] 94% | residual activity [21] 97% | residual activity [22] 100% | residual activity [23] 98% | residual activity [24] 100% | residual activity [25] 100% | residual activity [26] 87% | residual activity [27] 100% | residual activity [28] 87% | residual activity [29] 86% | residual activity [30] 100% | residual activity [31] 100% | residual activity [32] 84% | residual activity [33] 100% | residual activity [34] 98% | residual activity [35] 100% | residual activity [36] 78% | residual activity [37] 100% | residual activity [38] 64% | residual activity [39] 84%

CC(=O)N1CCC(c2ccc(C(=O)NC(=N)N)cc2C(F)(F)F)CC1 [BI 9627]
inactive: residual activity [1] 100% | residual activity [2] 100% | residual activity [3] 98% | residual activity [4] 100% | residual activity [5] 100% | residual activity [6] 100% | residual activity [7] 86% | inhibition [8] -8.21% | residual activity [9] 95% | residual activity [10] 100% | residual activity [11] 100% | residual activity [12] 100% | residual activity [13] 100% | residual activity [14] 81% | residual activity [15] 86% | residual activity [16] 87% | residual activity [17] 100% | residual activity [18] 100% | inhibition [19] 23.5% | residual activity [20] 100% | residual activity [21] 100% | residual activity [22] 100% | residual activity [23] 100% | residual activity [24] 100% | residual activity [25] 100% | residual activity [26] 95% | residual activity [27] 100% | residual activity [28] 98% | residual activity [29] 96% | residual activity [30] 99% | residual activity [31] 100% | residual activity [32] 100% | residual activity [33] 100% | residual activity [34] 100% | residual activity [35] 100% | residual activity [36] 100% | residual activity [37] 100% | residual activity [38] 76% | residual activity [39] 100%

— ChEMBL document CHEMBL4507279, “Data for DCP probe BI-9627” (2021)
